Data on one sequence can be found in US9132164B2, “Pharmaceutical compositions comprising angiotensin-(1-9), derivatives thereof, or a vector expressing ACE2, useful for treating cardiovascular, pulmonary, cerebral, and/or renal remodeling” (PONTIFICIA UNIVERSIDAD CATOLICA DE CHILE, priority 2008, dated 2015).

Entries after “also recorded” stand apart in the source; their conditions may differ. No end group written: not given here.

Assay [1] concerns left ventricle of infarcted rats. The experiment in a line: ANF mRNA (RT-PCR) and β-MHC protein (Western blot) in left ventricle of infarcted rats. The assay is classed as in vivo, Sprague Dawley rats. The following applies: two weeks via osmotic mini-pumps, p<0.01. The procedure: (§1) For studies with angiotensin-(1-9) 28 rats were randomly distributed into two groups and underwent a sham surgery (n=8) or infarction following left coronary artery ligation (n=20). The infarcted rats were randomized to receive the either the carrier, angiotensin-(1-9) (463 ng/kg of body weight for 14 days) or angiotensin-(1-9) plus A779 (463 ng of angiotensin-(1-9)/kg of body weight/min and 100 ng of A779/kg/min for 14 days) by means of osmotic mini-pumps (ALZET) implanted into the jugular under sedation with ketamine-HCl/xilazine (35/7 mg/kg intraperitoneal, respectively).
(§2) The extent of left ventricular hypertrophy was calculated by the relationship among left ventricular weight (LVW), body weight (BW), mRNA relative levels of the auricular natriuretic factor (ANF), left ventricular protein content (LVP), and protein levels of β-myosinheavy chain (β-MHC) as described in (Ocaranza et al, Hypertension 48:572-8, 2006).
In animal models as described in example 1, the heart was removed and RNA was purified according to the procedure described in example 3. Later, the amount of ANF mRNA was determined by reverse transcription followed by polymerization chain reaction (RT-PCR) (see example 3). […] Panel B) illustrates RT-PCRs quantification. **p<0.01 vs sham; ^##p<0.01 vs MI. […]
For orientation: A western blot detects proteins with antibodies after separation by electrophoresis.

The test system of assay [2] is heart cardiomyocytes of infarcted rats. Put plainly: Cardiomyocyte area and perimeter, cardiac tissue morphometry of infarcted rats. Conditions: two weeks via osmotic mini-pumps, p<0.01. The assay is classed as in vivo, Sprague Dawley rats. As to the method:
as §1
Heart mid-ventricle transverse slices (10 μm) were embedded in paraffin, stained with hematoxylin and eosin, and were examined by light microcopy (×20). The size of cardiomyocytes was determined as described by Nakamura et al (Circulation 98:794-9, 1998). Briefly, cell images visualized on a video recorded attached to the microscope were projected in a monitor and they were plotted. The area and perimeter were determined using Image J. software. […] At least 70 cells per animal were measured.
In animal models as described in example 1, heart was removed, histological cuts were made and a morphologic and morphometric analysis was performed on cardiac tissue according to the procedure described in example 3. […] In panel B), quantification is illustrated. **p<0.01 vs sham; ^##p<0.01 vs MI.

A short description of assay [3]: Plasma angiotensin levels in infarcted rats treated with angiotensin-(1-9) with or without A779. Conditions: with vs without A779, p<0.01. The assay is classed as in vivo, Sprague Dawley rats. The procedure:
as §1
Plasma angiotensin and bradykinin levels were determined as described by (Ocaranza et al, Hypertension 48:572-8, 2006; Ocaranza et al, Life Sci. 78:1535-42, 2005; Campbell et al, J. Mol. Cell. Cardiol. 27:1545-60, 1995). Briefly, rats were anesthetized with a combination of ketamin (125 mg/kg) and xilazin (12.5 mg/kg) administered via intraperitoneal injection. […] Plasmas were stored at −80° C. until their extraction using C18 Sep-Pak cartridges, and peptides were acetylated. Acetylated angiotensin II, angiotensin I, angiotensin-(1-7), angiotensin-(1-9), bradykinin-(1-7) and bradykinin-(1-9) were separated by high performance liquid chromatography (HPLC) and were detected by radioimmunoassay.

Assay [4] deals with Neonatal Sprague-Dawly rat cardiomyocytes. Put plainly: Hypertrophy of cultured cardiomyocytes induced by norepinephrine or IGF-1. Conditions: co-addition of 10 or 100 μM. The assay is classed as cell-based. The procedure:
Neonatal Sprague-Dawly rat cardiomyocytes were isolated as described by (Foncea et al, J. Biol. Chem. 272:19115-24, 1997). Every study is in accordance with the guide for the care and use of laboratory animals Published by “U.S. National Institutes of Health” (NIH publication No 85-23, revised 1985) and was approved by our Institutional Ethics Committee. Cell cultures were >95% pure. Cardiomyocytes were plated at 70% final density in gelatin coated plates and kept at 37° C. in a 5% CO2/95% air moisturized atmosphere for 24 h in DMEM/M199 (4:1) with 10% bovine fetal serum and 5% calf serum. […]
Cells were grown over slides and were incubated in a buffer conferring stability to the cytoskeleton (10 mM MES pH 6.0, 150 mM NaCl, 5 mM EDTA, 3% sucrose, 5 mM MgCl2) for 5 min. Then, cells were fixed and permeabilized using methanol for 10 min. Non specific binding sites were blocked for 1 h with phosphate-buffered saline (PBS) supplemented with 3% bovine serum albumin. […] Cellular staining was evaluated in a confocal microscope (Carl Zeiss Axiovert 135, LSM Microsystems). Cardiomyocyte size was determined in cells fixed with 4% paraformaldehyde for 10 min and permeabilized with methanol for 10 min. […] The size of at least 100 cells from randomly selected fields was determined using Image J (NIH) software. […]

The subject of assay [5] is rats with myocardial infarction (left coronary artery ligation). The experiment in a line: Effects of angiotensin-(1-9) administration on hemodynamic parameters and left ventricle weight in infarcted rats. The assay is classed as in vivo, Sprague Dawley rats. Conditions: infarcted rats (MI), osmotic mini-pump 14 days, average ± SEM. The procedure:
as §1
Systolic blood pressure (SBP) was determined by using the “tail-cuff” method by investigators who were blind to the treatment group. Left ventricle function was determined by transthoracic bidimensional echocardiography using a Sonos 5000 equipped with a 5 to 12 MHz sectorial electronic ultraband S12 Philips transducer. The following echocardiographic parameters were determined: left ventricular end-systolic diameter (LVESD), left ventricular end diastolic diameter (LVEDD), left ventricular fractional shortening (LVFS), left ventricular anterior wall thickness (LVAWT), and left ventricular posterior wall thickness (LLVWT).
as §2

DRVYIHPFH [angiotensin-(1-9)]: in assay [1] (RT-PCR), the “ANF mRNA levels, reduction compared with infarcted rats” value was determined as 81%. Further, the “β-MHC protein levels in left ventricle, decrease compared with infarcted rats” value in assay [1] (Western blot) was 48%. In addition, in assay [2], the “cardiomyocyte cellular area increment compared with infarcted rats” value is “prevented cellular area increment” and the “cardiomyocyte perimeter, decrease with regard to infarcted rats” value worked out at 31%. Also, the “plasma angiotensin-(1-9) levels” value in assay [3] turned out to be 6.8±0.8 fmols/g. Moreover, the “increments in cardiomyocyte areas induced by IGF-1” value in assay [4] (IGF-1 10 nM) is listed as “significantly prevented”. Further, the “increments in cardiomyocyte areas induced by NE” value in assay [4] (NE 10 μM) is reported as “significantly prevented”. Also, in assay [5], the CPVI worked out at 8.0 ± 0.3 mg, the FC result is given as “without observing changes”, the LVW entry was “significant reduction” and the LVW/BW stood at 310 ± 16 MV/100 g BW. For the same sequence, in assay [5], the SBP entry is reported as “without observing changes; also recorded: does not alter”. Besides, in assay [5] (listed as Ang-(1-9)), the FC was determined as 259 ± 14 beats/min, the LVW was 810 ± 7 mg and the SBP amounted to 112 ± 2 mm Hg.
